Several values for one entry are separate records, joined by “and”; a condition that tells them apart may be missing. Equal entries are not always repeated.
Tests used:
[1] = tested on: Cumulus Enclosed Oocytes (CEOs); assay: Cumulus enclosed oocyte assay (meiosis activation in Hx-medium); assay type: cell-based, mice (C57BL/6J×DBA/2J F1); conditions: for Meiosis Activation [%]: in the presence of Hx in CEOs
Source text: Activation of MI arrested oocytes can be assessed by the disappearance of the germinal vesicle (GV). The disappearance of the GV, called germinal vesicle breakdown (GVB) is followed by the extrusion of the first polar body (PB) (C. Grøndahl, J. L. Ottesen, M. Lessi, P. Faarup, A. Murray, F C Grønvald, C. Hegele-Hartung, I. Ahnfelt-Rønne, “Meiosis-activating sterol promotes resumption of meiosis in mouse oocytes cultured in vitro in contrast to related oxysterols”, Biol. Reprod., 58, 1297-1302 (1998); C. Hegele-Hartung, J. Kuhnke, M. Lessi, C. Grøndahl, J. Ottesen, H. M. Beier, S. Eisner, U. Eichenlaub-Ritter, “Nuclear and cytoplasmic maturation of mouse oocytes after treatment with synthetic meiosis-activating sterol in vitro”, Biol. Reprod., 61, 1362-1372 (1999)).
Cumulus Enclosed Oocytes (CEOs) were obtained from immature female mice (C57BL/6J×DBA/2J F1) weighing 13-16 grams, that were kept under controlled temperature (20-22° C.), light (lights on 06:00-18:00) and relative humidity (50-70%). The mice received an intra-peritoneal injection of 0.2 ml gonadotropins containing 20 IU FSH. 48 hours later the animals were killed by cervical dislocation. The ovaries were dissected out and the oocytes were isolated in Hx-medium (see below) under a stereomicroscope by manual rupture of the follicles using a pair of 27-gauge needles. Cumulus enclosed oocytes displaying an intact germinal vesicle were placed in α-minimum essential medium (α-MEM without ribonucleosides supplemented with 8 mg/ml Human Serum Albumin (HSA), 0.23 mM pyruvate, 2 mM glutamine, 100 IU/ml penicillin and 100 μg/ml streptomycin). To maintain the oocytes in the germinal vesicle stage this medium was supplemented with 3 mM hypoxanthine, designated as Hx-medium.
The CEOs (35-45 CEOs in 0.4 ml Hx-medium) were cultured in a humidified atmosphere of 5% CO2 in air for 24 hours at 37° C. One control well (identical medium with no addition of test compound) was always cultured simultaneously with test wells.
By the end of the culture period the number of CEOs with germical vesicle (GV), germinal vesicle breakdown (GVB) and polar bodies (PB), respectively, were counted. The % GVB, defined as the percentage of CEOs undergoing GVB per total number of CEOs in that well, was calculated as: % GVB=(number of GVB+number of PB/total number of CEOs)×100
The % PB was defined as the percentage of CEOs displaying one extruded polar body per total number of CEOs in that well.
For each compound two experiments were performed and the results compared to Hx-medium as a control and FF-MAS at a concentration of 10 μM.

[2] = tested on: mouse oocytes; assay: In vitro fertilization (IVF) after in vitro maturation of oocytes; assay type: cell-based, mice (C57BL/6J×DBA/2J F1); conditions: in vitro maturation without hypoxanthine, then IVF; n=18
Protocol: Changes in the subsequent IVF are therefore probably due to effects of the test compounds on cytoplasmic maturation.
Immature female mice (C57BL/6J×DBA/2J F1) in the age of 21-24 days were used as oocyte donors. Animals were given an i.p. injection of 10 IU pregnant mare serum gonadotropin (PMSG) to induce follicular growth. Animals were killed by cervical dislocation 48 hours later and the ovaries were dissected out. As sperm donors eight week old male mice (C57BL/6J×DBA/2J F1) were used.
Oocytes were isolated from the ovaries by manual rupture of the follicles using a pair of 27-gauge needles. Spherical naked oocytes (NkO) and CEOs displaying an intact GV were selected and placed in α-minimum essential medium (α-MEM without ribonucleosides, Gibco BRL, Gaithersburg; Cat. No. 22561) supplemented with 8 mg/ml human serum albumin (HSA), 0.23 mM pyruvate, 2 mM glutamine, 100 IU/ml penicillin and 100 μg/ml streptomycin.
The oocytes were rinsed three times in culture medium without oil overlay in 4-well multidishes containing 0.4 ml of the respective oocyte culture medium.
The oocyte culture medium was supplemented with 6.4% Fetal Bovine Serum (FBS). Solutions of novel compound IA and of the two compounds in comparison as mentioned were prepared from a stock solution containing 1 mg/ml of compound dissolved in absolute ethanol. The control group was cultured with a corresponding amount of ethanol.
After a culture time of 18-19 hours oocytes were further processed for in vitro fertilization. […] Oocytes were briefly washed without any test compound and subsequently transferred to the insemination dishes prepared in advance, which contained approximately 600.000 capacitated sperm cells per 500 μl IVF medium (obtained from the epididymides of male mice). The dishes were then incubated under defined gas conditions (5% CO2 in air) at 37° C. in a modified α-MEM IVF medium supplemented with 8 mg/ml HSA, 0.23 mM pyruvate, 100 IU penicillin/ml and 100 μg streptomycin/ml as described above for oocyte maturation.
Examination of the oocytes was carried out 22-24 hours after insemination in order to check fertilization and to record the number of pronucleus (PN) and 2-cell stage embryos. The fertilization rate was determined as the number of oocytes that had reached the PN or 2-cell embryo stage, relative to the total number inseminated.

[3] = tested on: in vitro fertilized ova (2-cell embryos); assay: Retransfer study / fertility trial (in vitro fertilized 2-cell embryos transferred into foster mothers); assay type: in vivo, mice; conditions: for No. of Implantation Spots: Odds / No. of Viable Fetuses: Odds: successes divided by failures; for No. of Implantation Spots: Failures: transferred ova minus implantation spots; for No. of Viable Fetuses: Failures: transferred ova minus viable fetuses; for Odds Ratio for comparison to FF-MAS, No. of Implantation Spots / Odds Ratio for comparison to FF-MAS, No. of Viable Fetuses: versus FF-MAS 10 μM; for shows significant improvement of odds versus vehicle control, number of implantation spots: 95% confidence interval of odds ratio, all doses tested
Protocol: In vitro fertilization was performed as described above for the IVF experiment.
One day before the retransfer female recipient mice (foster mothers) in pro-estrus cycle state were mated with vasectomized males in order to trigger pseudogestation. One day later a vaginal check was performed. Animals with a positive, sperm-free vaginal plug (successful mating) entered the study. This day was designated day 0 of gestation (=day 0 after the sterile copulation, day 0 p.c.). […] 2-cell embryos were transferred into the right tube of the foster mothers on day 0 after the sterile copulation under anesthesia. The contra-lateral tube remained unused (check for pseudogestation). The foster mothers were sacrified on day 19 of gestation. The fetuses were removed and examined. The ovaries and uteri were removed immediately to record the number of implantation sites, viable and dead fetuses and resorptions. Apparently non-pregnant uteri were placed in a 10% aqueous solution of ammonium sulfide for about 10 min to stain possible implantation sites in the endometrium. The viable fetuses were individually weighed and their sex determined by inspection of their gonads.
In a fertility trial 269 mice were randomized into 6 groups and implanted with 7-10 in vitro fertilized ova. The in vitro fertilization took place in the presence of vehicle (group 1) or of a substance (groups 2 to 6).
The fertility raising effect of the substances in comparison to the vehicle control was of main interest. Moreover, an improvement compared to the substance FF-MAS was also investigated.
Variables of primary interest are the number of implantation spots and the number of viable fetuses.
The data for implantation spots as well as for viable fetuses have to be considered to have binary character, i.e. it can be expressed in rates or in a number of successes and failures with respect to the number of transferred ova. Therefore, methods as outlined by D. Collett: “Modelling Binary Data”, 2nd edition, Chapman & Hall/CRC, Boca Raton, constitute appropriate approaches to the data analysis.
The odds ratio of one group as compared to the other is defined as: odds ratio (group 1, group 2)=or1,2=odds (group 1)/odds (group 2)
where the odds of a group can be estimated by the number of successes divided by the number of failures in that group.
To reach statements about the significance of any findings, 95% confidence-intervals for the odds ratios are computed as: [ exp(log(or1,2)[…]1.96·se(log(or1,2))); exp(log(or1,2)+1.96·se(log(or1,2)))]
wherein se(log(or1,2)) is the standard error of the log odds ratio (see D. Collett (2003) for the corresponding formula).
As a basis for the computation of odds ratios, the number of successes (i.e., the number of implantation spots of number of viable fetuses) and failures (i.e., the number of transferred ova minus the number of implantation spots or number of viable fetuses) are computed for all groups.

[4] = tested on: follicle culture system; assay: Follicle culture system (induction of maturation); assay type: cell-based
[5] = tested on: rat oocytes (CEO and DO); conditions: micromolar concentrations; CEO and DO cultured in vitro; cited from earlier work
[6] = Solubility in water (measured by turbimetry)
[7] = 10 μM, Table 1, two experiments per compound, FF-MAS run in parallel

Row | Structure (SMILES) | Meiosis Activation [%] [1, 7] | fertilization rates of mouse oocytes compared to vehicle control (FIG. 3) [2] | No. of Implantation Spots: Success ([3]; 10 μM) | No. of Viable Fetuses: Success ([3]; 10 μM) | Odds Ratio for comparison to vehicle control, No. of Implantation Spots ([3]; 10 μM) | Odds Ratio for comparison to vehicle control, No. of Viable Fetuses ([3]; 10 μM) | No. of Implantation Spots: Odds ([3]; 10 μM) | No. of Viable Fetuses: Odds ([3]; 10 μM) | No. of Implantation Spots: Failures ([3]; 10 μM) | No. of Viable Fetuses: Failures ([3]; 10 μM) | shows significant improvement of odds versus vehicle control, number of implantation spots [3] | Meiosis Activation [%] ([1]; 10 μM, Table 2) | also measured
1 | C[C@H](CN1CCSCC1)[C@H]1CC[C@H]2C3=CC=C4C(C)(C)[C@@H](O)CC[C@]4(C)[C@H]3CC[C@]12C [Compound ID, (20S)-20-[(thiomorpholin-4-yl)methyl]-4,4-dimethyl-pregna-5,7-dien-3β-ol] | 89% and 58% |  |  |  |  |  |  |  |  |  |  |  | 
2 | C[C@H](CN1CCCCC1)[C@H]1CC=C2C3=C(CC[C@@]21C)[C@@]1(C)CC[C@H](O)C(C)(C)[C@@H]1CC3 [Compound No. 2, (20S)-20-[(piperidin-1-yl)methyl]-4,4-dimethyl-5α-pregna-8,14-dien-3β-ol] |  | higher fertilization rates | 90 | 37 | 1.08 | 1.24 | 0.27 | 0.10 | 332 | 385 | Neither | 48% | No. of Implantation Spots: Success ([3]; 1 μM): 97; No. of Viable Fetuses: Success ([3]; 1 μM): 32; Odds Ratio for comparison to vehicle control, No. of Implantation Spots ([3]; 1 μM): 1.09; Odds Ratio for comparison to vehicle control, No. of Viable Fetuses ([3]; 1 μM): 0.98; No. of Implantation Spots: Odds ([3]; 1 μM): 0.27; No. of Viable Fetuses: Odds ([3]; 1 μM): 0.08; No. of Implantation Spots: Failures ([3]; 1 μM): 357; No. of Viable Fetuses: Failures ([3]; 1 μM): 422; Odds Ratio for comparison to FF-MAS, No. of Implantation Spots ([3]; 1 μM): 0.91; Odds Ratio for comparison to FF-MAS, No. of Viable Fetuses ([3]; 1 μM): 0.66; Odds Ratio for comparison to FF-MAS, No. of Implantation Spots ([3]; 10 μM): 0.91; Odds Ratio for comparison to FF-MAS, No. of Viable Fetuses ([3]; 10 μM): 0.83
3 | C[C@H](CN1CCSCC1)[C@H]1CCC2=C3CC[C@H]4C(C)(C)[C@@H](O)CC[C@]4(C)[C@H]3CC[C@@]21C [Compound IB, (20S)-20-[(thiomorpholin-4-yl)methyl]-4,4-dimethyl-5α-pregna-8(14)-en-3β-ol] | 15% |  |  |  |  |  |  |  |  |  |  |  | 
4 | C[C@H](CN1CCSCC1)[C@H]1CC=C2C3=C(CC[C@@]21C)[C@@]1(C)CC[C@H](O)C[C@@H]1CC3 [Compound IC, (20S)-20-[(thiomorpholin-4-yl)methyl]-5α-pregna-8,14-dien-3β-ol] | 64% and 69% |  |  |  |  |  |  |  |  |  |  |  | 
5 | C[C@H](CN1CCSCC1)[C@H]1CCC2=C3CC[C@H]4C[C@@H](O)CC[C@]4(C)[C@H]3CC[C@@]21C [Compound IE, (20S)20-[(thiomorpholin-4-yl)methyl]-5α-pregna-8(14)-en-3β-ol] | 96% and 80% |  |  |  |  |  |  |  |  |  |  | 60% | Meiosis Activation [%] ([1]; 1 μM, Table 2): 44%; Meiosis Activation [%] ([1]; 3 μM, Table 2): 24%; efficiency of meiosis activation among the compounds tested ([1]; CEOs in the presence of Hx): the most efficient compound tested
6 | CC(C)=CCC[C@@H](C)[C@H]1CC=C2C3=C(CC[C@@]21C)[C@@]1(C)CC[C@H](O)C(C)(C)[C@@H]1CC3 [FF-MAS, 4,4-dimethyl-5α-cholesta-8,14,24-trien-3β-ol] |  | higher fertilization rates | 100 | 45 | 1.19 | 1.49 | 0.30 | 0.12 | 335 | 390 | Neither | 24% | induction of maturation / activation of meiosis in a follicle culture system [4]: not able to induce maturation; resumption of meiosis in rat oocytes arrested by IBMX [5]: able to induce resumption of meiosis in a dose-dependent manner; implantation rate per transferred 2-cell embryos (FIG. 4) ([3]; FF-MAS 10 μM, compound IA 1 μM and 10 μM): higher numbers; solubility [6]: < 0.1 µg/mL

Reference: patent publication US20070078262A1, “Thiomorpholino steroid compounds, the use thereof for the preparation of meiosis-regulating medicaments and method for the preparation thereof” (SCHERING AKTIENGESELLSCHAFT, priority 2003, published 2007)
